According to article PMC2752052 (Analytical biochemistry, 2009):

Target: T1, Sirt1 (Homo sapiens, UniProt Q96EB6)
T1 sequence (Q96EB6 2-747): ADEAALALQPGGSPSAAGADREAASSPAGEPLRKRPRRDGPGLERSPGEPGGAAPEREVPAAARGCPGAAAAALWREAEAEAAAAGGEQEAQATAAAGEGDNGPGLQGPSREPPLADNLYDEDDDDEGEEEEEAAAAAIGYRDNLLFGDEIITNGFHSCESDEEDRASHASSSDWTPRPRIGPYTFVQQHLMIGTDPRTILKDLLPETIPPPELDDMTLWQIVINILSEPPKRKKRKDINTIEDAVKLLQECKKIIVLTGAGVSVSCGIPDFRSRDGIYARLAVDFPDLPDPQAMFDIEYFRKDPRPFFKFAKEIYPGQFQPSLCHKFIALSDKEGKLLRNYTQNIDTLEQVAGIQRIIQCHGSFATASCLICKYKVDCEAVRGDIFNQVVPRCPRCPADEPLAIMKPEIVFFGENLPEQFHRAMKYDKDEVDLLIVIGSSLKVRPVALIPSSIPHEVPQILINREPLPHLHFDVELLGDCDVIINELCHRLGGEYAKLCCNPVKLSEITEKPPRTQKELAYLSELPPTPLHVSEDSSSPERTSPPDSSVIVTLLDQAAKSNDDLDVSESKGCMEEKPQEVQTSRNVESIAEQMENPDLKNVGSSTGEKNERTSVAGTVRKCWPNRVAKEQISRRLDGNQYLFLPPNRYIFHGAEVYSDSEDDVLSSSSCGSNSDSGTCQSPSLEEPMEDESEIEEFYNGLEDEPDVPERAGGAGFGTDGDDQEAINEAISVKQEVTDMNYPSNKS
Assay: nicotinamidase/glutamate dehydrogenase coupled assay
Assay type: biochemical

Nc1ncnc2c1ncn2[C@@H]1O[C@H](COP(=O)(O)OP(=O)(O)OC[C@H]2OC(O)[C@H](O)[C@@H]2O)[C@@H](O)[C@H]1O (stereo partly shown) [ADP-ribose]
IC50: 77 ± 4 µM
